Entries after “also recorded” stand apart in the source; their conditions may differ. Residues, ends and D or L forms follow the SMILES beside them. *: point of attachment. Cbz = O=C(OCc1ccccc1)*; OtBu = CC(C)(C)O*
Molecular target: T1, human Nav1.6 (Homo sapiens, UniProt Q9UQD0)
T1 construct: expressed in transfected cells; host or cells: HEK293 stably expressing human Nav1.6
Assay: Whole-cell patch-clamp, HEK293 cells stably expressing human Nav1.6
Assay type: cell-based
Procedure: Whole-cell patch clamp electrophysiology
HEK293-Nav1.7 cells, HEK293 stably expressing human Nav1.6 (HEK-Nav1.6), HEK293 stably expressing human Nav1.5 (HEK-Nav1.5), human hIPSC-derived sensory neurons (RealDRGTM from Anatomic Incorporated 1020F1-1M) and donor-derived DRG neurons were plated at low density on glass coverslips and processed for whole-cell patch clamp electrophysiology in voltage-clamp and/or current clamp mode. Whole-cell patch electrophysiological experiments were conducted following previously published studies (26). Current densities were obtained by dividing INa amplitude by membrane capacitance. Current –voltage relationships were generated by plotting current density as a function of the […]. Conductance (G Na) was calculated by the […]
where INa is the current amplitude at voltage Vm, and Erev is the Na+ reversal potential.
Activation curves were derived by plotting normalized GNa as a function of test potential and fitted using […]
Where GNa,Max is the maximum conductance, Va is the membrane potential of half-maximal activation, Em is the membrane voltage and k is the slope factor. For steady -state inactivation, normalized current amplitude (INa/INa,Max) at the test potential was plotted as a function of prepulse potential (Vm) and fitted using the […]
Where Vh is the potential of half-maximal inactivation, E m is the membrane voltage, and k is the slope factor.
Transient INa inactivation decay was estimated with the standard exponential equation. Inactivation time constant (tau, τ) was fitted with the following equation: […]
where I(t) is the amplitude of the current at time t and Iss is the steady-state current during a single voltage-step.
The goodness of fitting was determined by correlation coefficient (R), and the cutoff of R was set at 0.85. To observe effects on long-term inactivation (LTI), a four-step protocol was employed during which cells were subjected to four 0 mV, 20 ms depolarization pulses separated by −90 mV, 40 ms recovery intervals. To control for various cell sizes, the current densities were calculated by dividing INa peak current amplitude/membrane capacitance (Cm). To represent the fraction of channels entering into LTI, the peak INa observed during depolarization cycles 2-4 was normalized to the peak INa observed during depolarization cycle 1 (INa/INa,Cycle 1) and plotted as a function of the depolarization cycle.
The cumulative (frequency-dependent) use-dependency was determined by applying 20 pulses with a depolarization to −10 mV (50 ms duration) and 50 ms recovery intervals with a train of 20 pulses at 10 Hz from a holding potential at -70 mV. The current pulses were normalized to the first reco rded pulse and the currents at the 2nd to 20th pulses were compared. The same train was used to record use-dependency at various frequencies […]
The rate of recovery from inactivation was recorded at -80 mV with a standard repriming voltage protocol.
The cells were prepulsed to -20 mV for 20 ms to inactivate all currents, then driven back to the recovery potential (Vrec) for increasing recovery durations before the test pulse to 0 mV. The maximum pulse rate was 0.5 Hz. The […]
follows previous publications (16). The time constants were estimated from single exponential decay to time courses measured at recovery potentials ranging from -140 to -60 mV with the protocol as mentioned above.
Electrophysiological Recordings
HEK293 cells: Electrophysiological recordings in HEK293 stably expressing Nav1.7 (HEK-Nav1.7), Nav1.5 (HEK-Nav1.5) or Nav1.6 (HEK-Nav1.6) were performed at room temperature using a MultiClamp 700B or an Axopatch 200B amplifier (Molecular Devices) after incubating coverslips for 60 minutes either with 0.1% DMSO or 50 μM PW164 or ZL192 in the extracellular solution. The composition of recording solutions consisted of the […]
following salts: extracellular (mM): 140 NaCl, 3 KCl, 1 MgCl2, 1 CaCl2, 10 HEPES, 10 glucose, pH 7.3; […]
intracellular (mM): 130 CH3O3 SCs, 1 EGTA, 10 NaCl, 10 HEPES, pH 7.3. […]

[1] = HEK293 Nav1.6, FGF13-1a-GFP + PW164

T1 sequence (Q9UQD0 whole entry): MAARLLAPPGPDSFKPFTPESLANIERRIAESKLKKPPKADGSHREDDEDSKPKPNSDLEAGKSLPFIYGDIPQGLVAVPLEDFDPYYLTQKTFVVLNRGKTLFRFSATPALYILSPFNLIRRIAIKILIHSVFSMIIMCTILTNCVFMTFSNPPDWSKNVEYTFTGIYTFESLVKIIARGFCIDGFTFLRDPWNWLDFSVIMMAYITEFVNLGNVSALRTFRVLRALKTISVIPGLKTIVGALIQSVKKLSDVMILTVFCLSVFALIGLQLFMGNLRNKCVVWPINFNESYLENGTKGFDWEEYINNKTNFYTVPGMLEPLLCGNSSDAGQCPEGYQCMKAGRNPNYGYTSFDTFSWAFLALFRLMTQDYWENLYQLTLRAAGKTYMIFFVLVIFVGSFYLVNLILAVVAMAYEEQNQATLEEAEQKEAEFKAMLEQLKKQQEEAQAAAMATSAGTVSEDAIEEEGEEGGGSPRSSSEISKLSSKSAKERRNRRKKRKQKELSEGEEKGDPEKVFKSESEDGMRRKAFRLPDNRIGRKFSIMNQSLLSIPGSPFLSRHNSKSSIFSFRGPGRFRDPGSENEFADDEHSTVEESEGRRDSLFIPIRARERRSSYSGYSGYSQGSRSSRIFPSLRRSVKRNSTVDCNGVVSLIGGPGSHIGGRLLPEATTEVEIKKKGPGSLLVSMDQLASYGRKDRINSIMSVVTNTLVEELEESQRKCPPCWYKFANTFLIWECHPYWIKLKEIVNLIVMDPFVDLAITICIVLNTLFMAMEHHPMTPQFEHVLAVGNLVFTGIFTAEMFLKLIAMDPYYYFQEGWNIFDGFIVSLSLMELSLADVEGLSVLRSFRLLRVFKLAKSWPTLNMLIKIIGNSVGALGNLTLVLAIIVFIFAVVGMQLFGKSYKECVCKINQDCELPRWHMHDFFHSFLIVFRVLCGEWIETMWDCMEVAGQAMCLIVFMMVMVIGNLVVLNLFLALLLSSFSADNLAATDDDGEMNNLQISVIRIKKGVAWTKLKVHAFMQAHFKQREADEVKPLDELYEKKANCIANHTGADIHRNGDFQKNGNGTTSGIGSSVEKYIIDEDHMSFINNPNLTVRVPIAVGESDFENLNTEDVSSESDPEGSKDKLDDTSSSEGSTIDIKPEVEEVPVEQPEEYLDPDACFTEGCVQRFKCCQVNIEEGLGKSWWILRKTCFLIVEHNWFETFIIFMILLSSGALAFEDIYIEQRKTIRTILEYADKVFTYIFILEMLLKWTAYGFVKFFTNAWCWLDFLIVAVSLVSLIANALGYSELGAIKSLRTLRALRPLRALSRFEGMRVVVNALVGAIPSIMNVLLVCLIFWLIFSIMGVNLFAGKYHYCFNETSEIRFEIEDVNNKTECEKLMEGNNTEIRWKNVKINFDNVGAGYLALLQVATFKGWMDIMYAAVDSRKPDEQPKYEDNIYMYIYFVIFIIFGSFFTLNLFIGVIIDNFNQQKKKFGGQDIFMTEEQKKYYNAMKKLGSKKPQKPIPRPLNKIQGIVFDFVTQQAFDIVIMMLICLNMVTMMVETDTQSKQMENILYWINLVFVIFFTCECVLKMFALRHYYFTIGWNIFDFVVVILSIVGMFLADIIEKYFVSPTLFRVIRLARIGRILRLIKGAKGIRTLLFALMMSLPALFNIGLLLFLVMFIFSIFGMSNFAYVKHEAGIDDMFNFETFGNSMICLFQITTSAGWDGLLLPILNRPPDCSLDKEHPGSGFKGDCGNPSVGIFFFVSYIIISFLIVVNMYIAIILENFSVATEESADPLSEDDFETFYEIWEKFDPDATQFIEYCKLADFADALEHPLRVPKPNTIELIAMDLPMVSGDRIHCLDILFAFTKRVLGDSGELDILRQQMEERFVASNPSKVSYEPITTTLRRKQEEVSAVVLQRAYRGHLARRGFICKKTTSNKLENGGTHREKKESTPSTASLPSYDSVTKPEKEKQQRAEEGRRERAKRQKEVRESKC

Question: How did the Activation [1] turn out when `COC(=O)[C@@H](NC(=O)[C@H](CCC(=O)OC(C)(C)C)NC(=O)[C@H](CC(C)C)NC(=O)[C@@H]1CCCN1C(=O)OCc1ccccc1)C(C)C` [PW164] (Cbz-PLE(OtBu)V-OMe) was run?
Answer: The Activation was −29.2 ± 1.2 mV.

Question: What about the “Long-term inactivation, 2nd Pulse” value [1] of the same compound?
Answer: Its value is −67.4 ± 4.1 % maximal Na+ current.

Question: What about the “Long-term inactivation, 3rd Pulse” value [1] of the same compound?
Answer: Its value is −59.7 ± 4.1 % maximal Na+ current.

Question: What about the “Long-term inactivation, 4th Pulse” value [1] of the same compound?
Answer: The value was −54.2 ± 4.9 % maximal Na+ current.

Question: And the Peak Density [1]?
Answer: The Peak Density was −102.7 ± 8.8 pA/pF.

Question: What about the Steady state inactivation [1] of the same compound?
Answer: The Steady state inactivation was −50.8 ± 2.1 mV.

Question: What about the “Tau (τ)” value [1] of the same compound?
Answer: Its value is 1.46 ± 0.04 ms.

Question: What about the “activity on Nav1.6-mediated currents” value (HEK293 stably expressing Nav1.6 alone or coexpressing FGF13) of the same compound?
Answer: The value was “does not modulate; also recorded: inactive”.
